# Key:
# tumours in patients = conditions: human, in vivo; cited from earlier work
# [1] = cited from earlier work
# murine L1210 leukaemia = assay: in vivo murine L1210 leukaemia
# Description: (§1) "In vivo" experiments including: a murine leukaemia and murine L1210 leukaemia / cisplatin resistant (i.p. drug administration day 1 after i.p. injection of 10^6 tumour cells day 0); b) advanced M 5076 ovarian carcinoma in female mice (i.m. injection of 5.10^5 cell day 0, drug administration q7d×3) are based on classical models that allow a preliminary evaluation of efficacy and toxicity of the novel agent in comparison with a well-stated reference drug. The evaluated parameters are toxic death, median survival time (T/C %) and long term survivals (60 days).
# L1210 resistant line = assay: in vivo murine L1210 leukaemia / cisplatin resistant
# Description: as §1
# M5076 ovarian carcinoma = assay: advanced M 5076 ovarian carcinoma in female mice; format: in vivo
# Description: as §1
# cervix epithelioma = assay: MTT assay, cervix epithelioid carcinoma; format: cell-based, human; conditions: in vitro
# Description: The "in vitro" testing procedure has been based on the "MTT assay on human tumor cell lines" (T. Mosmann, J Immunol. Meth., 65, 55, 1983). According to N.C.I screening program for new anticancer drugs, the evaluation of the anti-tumour activity has been performed against groups of cell lines each representing a major category of human malignancy. Human cell (for ex. cervix epithelioid carcinoma, melanoma, fibrosarcoma and vulvar leiomyosarcoma cultures have been adapted to grow in complete RPMI 1640 medium; the compounds were added to 24 hours cultures and incubated for 72 and 160 hours.
# [2] = cisplatin at 7 and 10 mg/kg, i.p. day 1
compound,measurement,setting,value
N.N.O=C([O-])C1(C(=O)[O-])CCC1.[Pt+2] [carboplatin],"activity against lung tumors (non-small cell), osteogenic sarcoma, Hodgkins lymphoma, melanoma and mammary tumors",tumours in patients,"a certain, even if limited, activity"
same,nephrotoxicity compared with cis-platin,"[1]; human, in vivo",less nephrotoxic than cis-platin
"N.N.[Cl][Pt][Cl] [cisplatin, cis-diammino-dichloro-platinum, reference compound]",long term survivals (60 days),murine L1210 leukaemia; [2],1/10
same,median survival time (T/C %),murine L1210 leukaemia; [2],162%
same,median survival time (T/C %),L1210 resistant line,115%
same,body weight change,M5076 ovarian carcinoma; equieffective dose levels,marked body weight decrease
same,activity against head and neck squamous cell carcinoma and further listed tumors,tumours in patients,a certain activity
same,"activity against lung tumors (non-small cell), osteogenic sarcoma, Hodgkins lymphoma, melanoma and mammary tumors",tumours in patients,"a certain, even if limited, activity"
same,antitumour activity in patients,tumours in patients,"particularly effective in the treatment of genito-urinary tumours, of neck and head tumours"
same,side-effects,[1]; following cisplatin use,"important gastrointestinal and renal side-effects, haematologic and neurologic complications (ototoxicity)"
"NCCN.O=C([O-])C(CCOCCOCCO)C(=O)[O-].[Pt+2] [reference compound, cis(1,2-diaminoethane)-(8-hydroxy 3,6-dioxaoctane-1-yl-malonate) platinum (II), reference compound]",toxicity,murine L1210 leukaemia; at the higher dose level,heavily toxic
"(2R, 3R, 11R, 12R)-1,4-7,10,13,16-hexaoxacyclooctadecane-2,3,11,12-tetracarboxylate-bis- [compound B, (2R, 3R, 11R, 12R)-1,4-7,10,13,16-hexaoxacyclooctadecane-2,3,11,12-tetracarboxylate-bis-[cis(trans-d,l,-1,2)diamino-cyclohexane)-platinum(II)]]",median survival time (T/C %),"murine L1210 leukaemia; 20 mg/kg dose level, i.p. day 1",170%
same,long term survivor values,"murine L1210 leukaemia; 20 mg/kg dose level, 60 days",2
same,median survival time (T/C %),murine L1210 leukaemia; 120 mg/kg,200%
same,toxic deaths,murine L1210 leukaemia; 120 mg/kg,2/10
same,long term survivors,"murine L1210 leukaemia; 120 mg/kg, 60 days",2/10
same,DL100,murine L1210 leukaemia; i.p.,over 200 mg/kg
same,cross resistance with cisplatin,L1210 resistant line,Lack of cross resistance with cisplatin
same,median survival time (T/C %),L1210 resistant line,over 160%
same,tumour growth inhibition potency,M5076 ovarian carcinoma; drug administration q7d×3,comparable with that of cisplatin
same,body weight change,"M5076 ovarian carcinoma; mouse, in vivo",normal body weight increase
"cis[(1,1-diaminomethyl-cyclohexane)-3,3-(1,5,8,11,14,17-hexaoxacyclononadecane)cyclobutane]-1,1-dicarboxylate [compound D]",antitumour activity compared with cisplatin,cervix epithelioma,more active than cisplatin of about a log. order
same,cross resistance with cisplatin,L1210 resistant line,Lack of cross resistance with cisplatin
same,median survival time (T/C %),L1210 resistant line,over 160%
